ChEMBL document CHEMBL1759917, “Synthesis of purin-2-yl and purin-6-yl-aminoglucitols as C-nucleosidic ATP mimics and biological evaluation as FGFR3 inhibitors” (Eur J Med Chem, 2011)
Active and inactive are the calls of the source. The rule behind the calls is not given here.

target: Fibroblast growth factor receptor 3 (Homo sapiens) (UniProt P22607); experiment: Inhibition of FGFR3 at 50 uM
Sequence (P22607 23-806 limits assumed): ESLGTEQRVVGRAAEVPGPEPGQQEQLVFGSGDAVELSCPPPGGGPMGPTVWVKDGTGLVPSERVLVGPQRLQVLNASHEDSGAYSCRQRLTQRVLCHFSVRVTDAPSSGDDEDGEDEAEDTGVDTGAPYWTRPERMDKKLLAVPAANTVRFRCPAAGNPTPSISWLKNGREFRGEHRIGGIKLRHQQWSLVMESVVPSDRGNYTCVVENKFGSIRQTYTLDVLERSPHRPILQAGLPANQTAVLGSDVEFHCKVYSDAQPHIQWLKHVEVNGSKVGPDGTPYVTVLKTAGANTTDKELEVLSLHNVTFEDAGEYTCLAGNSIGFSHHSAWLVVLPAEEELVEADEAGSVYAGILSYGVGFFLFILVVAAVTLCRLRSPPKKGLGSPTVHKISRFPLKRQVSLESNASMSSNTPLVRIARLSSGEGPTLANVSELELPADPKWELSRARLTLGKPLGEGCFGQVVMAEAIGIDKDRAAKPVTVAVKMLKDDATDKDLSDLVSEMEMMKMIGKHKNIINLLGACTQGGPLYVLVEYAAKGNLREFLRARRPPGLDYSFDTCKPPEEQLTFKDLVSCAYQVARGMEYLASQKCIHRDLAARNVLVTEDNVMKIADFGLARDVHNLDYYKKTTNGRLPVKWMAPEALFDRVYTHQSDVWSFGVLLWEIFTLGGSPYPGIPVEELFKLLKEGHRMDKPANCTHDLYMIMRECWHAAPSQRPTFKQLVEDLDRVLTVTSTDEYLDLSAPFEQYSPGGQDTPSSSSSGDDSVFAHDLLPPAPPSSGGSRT

Row | Structure (SMILES) | inhibition call (active / not active)
1 | OC[C@H]1O[C@@H](CNc2nc(I)nc3[nH]cnc23)[C@@H](OCc2ccccc2)[C@@H]1OCc1ccccc1 | Active
2 | OC[C@H]1O[C@@H](CNc2nc(NCCc3ccccc3)c3nc[nH]c3n2)[C@@H](O)[C@@H]1O | Active
3 | OC[C@H]1O[C@@H](CNc2nc(NCCc3ccccc3)c3nc[nH]c3n2)[C@@H](OCc2ccccc2)[C@@H]1OCc1ccccc1 | Active
4 | OC[C@H]1O[C@@H](CNc2nc(NCCc3ccccc3)nc3[nH]cnc23)[C@@H](OCc2ccccc2)[C@@H]1OCc1ccccc1 | Active
5 | Nc1ncnc2c1ncn2C[C@@H]1O[C@H](CO)[C@@H](O)[C@H]1O | inactive
6 | OC[C@H]1O[C@@H](CNc2nc(NCCN3CCOCC3)nc3[nH]cnc23)[C@@H](O)[C@@H]1O | Active
7 | Nc1nc(Nc2ccccc2)c2ncn(C[C@@H]3O[C@H](CO)[C@@H](O)[C@H]3O)c2n1 | inactive
8 | CCN(CC)CCCNc1nc(N)c2ncn(C[C@@H]3O[C@H](CO)[C@@H](O)[C@H]3O)c2n1 | inactive
9 | CCN(CC)CCCNc1nc(Nc2ccccc2)c2ncn(C[C@@H]3O[C@H](CO)[C@@H](O)[C@H]3O)c2n1 | inactive
10 | Ic1nc(NCCN2CCOCC2)c2nc[nH]c2n1 | Active
11 | OC[C@H]1O[C@@H](CNc2nc(NCCc3ccccc3)nc3[nH]cnc23)[C@@H](O)[C@@H]1O | Active
12 | COc1ccc(CCNc2nc(NC[C@@H]3O[C@H](CO)[C@@H](O)[C@@H]3O)c3nc[nH]c3n2)cc1OC | Active
13 | OC[C@H]1O[C@@H](CNc2nc(NCCN3CCOCC3)c3nc[nH]c3n2)[C@@H](O)[C@@H]1O | Active
14 | Nc1ncc2ncn(C[C@@H]3O[C@H](CO)[C@@H](O)[C@H]3O)c2n1 | inactive
15 | Nc1nc(N)c2ncn(C[C@@H]3O[C@H](CO)[C@@H](O)[C@H]3O)c2n1 | inactive
16 | COc1ccc(CCNc2nc(NC[C@@H]3O[C@H](CO)[C@@H](O)[C@@H]3O)nc3[nH]cnc23)cc1OC | Active
